Molecular target: Wild-type human active MASTL (Homo sapiens (Human), UniProt Q96GX5)
Assay: MASTL activity assay
Format: biochemical
Details: ATP 18 μM, biotin tagged 40-mer ENSA peptide 10 nM, 60 minutes at room temperature, HTRF/FRET readout
Description: Wild-type human active MASTL (154 pM) was incubated in assay buffer (50 mM HEPES, 100 mM NaCl, 0.1 mM EGTA, 10 mM MgCl2, 0.01% Tween-20, 0.5 mM TCEP, pH 7.5) with biotin tagged 40-mer ENSA peptide (10 nM), test compound and ATP (18 μM) for 60 minutes at room temperature. Test compounds were assayed using a 12-point dose range consisting of a 0, DMSO control and 10 sequential doses consisting from 0.0005, 0.002, 0.005, 0.014, 0.04, 0.12, 0.37, 1.11, 3.33 and 10 μM. The DMSO concentration was the same (1%) in all samples. An equal volume of detection buffer (assay buffer+267.5 pM Ab-K, 1.25 nM SA-D2, 20 mM EDTA and 400 mM KF) was added to stop the reaction to make a final volume of 20 μl, RT for 60 mins. Activity was measured using a plate reader (PerkinElmer EnSight) by the FRET signal generated between SA-D2 (streptavidin-D2) and Ab-K (anti-phospho-Serine 67 ENSA antibody (rabbit polyclonal, using standard techniques by a commercial supplier) conjugated to Cryptate). HTRF reagents (CisBio) were prepared as per the manufacturer recommendations. The 40-mer biotin-tagged ENSA peptide (synthesised by Bionics) used was based around Serine 67 on ENSA ([…]).

Sequence of Wild-type human active MASTL (Q96GX5 whole entry): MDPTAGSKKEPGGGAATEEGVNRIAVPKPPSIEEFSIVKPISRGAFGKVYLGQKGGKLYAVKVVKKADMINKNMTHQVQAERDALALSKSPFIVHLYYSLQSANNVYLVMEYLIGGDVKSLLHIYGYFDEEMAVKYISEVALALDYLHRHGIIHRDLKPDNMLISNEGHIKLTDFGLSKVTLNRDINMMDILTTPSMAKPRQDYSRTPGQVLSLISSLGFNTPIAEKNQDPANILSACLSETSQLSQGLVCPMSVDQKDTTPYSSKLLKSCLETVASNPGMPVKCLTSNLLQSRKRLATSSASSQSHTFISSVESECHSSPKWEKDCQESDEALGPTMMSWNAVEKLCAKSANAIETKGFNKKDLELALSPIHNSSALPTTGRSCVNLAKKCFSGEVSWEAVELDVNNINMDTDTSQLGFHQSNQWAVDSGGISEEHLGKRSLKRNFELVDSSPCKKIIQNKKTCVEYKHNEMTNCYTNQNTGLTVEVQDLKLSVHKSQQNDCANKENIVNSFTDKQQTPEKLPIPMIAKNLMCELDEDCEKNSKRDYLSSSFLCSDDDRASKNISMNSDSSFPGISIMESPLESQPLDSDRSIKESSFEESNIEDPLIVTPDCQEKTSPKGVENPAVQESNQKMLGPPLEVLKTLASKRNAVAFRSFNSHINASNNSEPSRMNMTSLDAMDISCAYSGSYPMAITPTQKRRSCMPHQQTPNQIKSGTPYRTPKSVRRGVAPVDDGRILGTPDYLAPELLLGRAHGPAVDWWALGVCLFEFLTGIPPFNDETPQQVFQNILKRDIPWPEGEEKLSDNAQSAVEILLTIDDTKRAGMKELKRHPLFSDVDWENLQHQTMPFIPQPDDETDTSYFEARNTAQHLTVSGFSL

| SMILES | IC50 [nM] |
| --- | --- |
| CNc1nc(N[C@H](c2ccn(C(F)F)n2)C(C)C)nc(-c2ccc3cnn(C)c3c2)n1 (single isomer, unassigned) [Example 29B, N4-[(1S or 1R)-1-[1-(difluoromethyl)pyrazol-3-yl]-2-methyl-propyl]-N2-(trideuteriomethyl)-6-[1-(trideuteriomethyl)indazol-6-yl]-1,3,5-triazine-2,4-diamine] | > 1000 |
| Cc1ncc2ccc(-c3nc(N)nc(N[C@H](c4ccc(F)cn4)C(C)C)n3)cn12 (single isomer, unassigned) [Example 136B, N2-[(1R or 1S)-1-(5-fluoro-2-pyridyl)-2-methyl-propyl]-6-(3-methylimidazo[1,5-a]pyridin-6-yl)-1,3,5-triazine-2,4-diamine] | > 1000 |
| CC[C@@H](Nc1nc(N)nc(-c2ccc3cnc(C)n3c2)n1)c1ccc(F)nc1 (single isomer, unassigned) [Example 141A, N2-[(1R or 1S)-1-(6-fluoro-3-pyridyl)propyl]-6-(3-methylimidazo[1,5-a]pyridin-6-yl)-1,3,5-triazine-2,4-diamine] | 500 to 1000 |
| CC[C@H](Nc1nc(N)nc(-c2ccc3cnc(C)n3c2)n1)c1ccc(F)nc1 (single isomer, unassigned) [Example 141B, N2-[(1R or 1S)-1-(6-fluoro-3-pyridyl)propyl]-6-(3-methylimidazo[1,5-a]pyridin-6-yl)-1,3,5-triazine-2,4-diamine] | 500 to 1000 |
| CNc1nc(NCC(O)c2cccc(Cl)c2Cl)cc(-c2ccc3cnc(C)n3c2)n1 (single isomer, unassigned) [Example 143B, (1R or 1S)-1-(2,3-dichlorophenyl)-2-[[2-(methylamino)-6-(3-methylimidazo[1,5-a]pyridin-6-yl)pyrimidin-4-yl]amino]ethanol] | > 1000 |
| Cc1ncc2ccc(-c3nc(N)nc(NC[C@H](O)c4cccc(Cl)c4Cl)n3)cn12 (single isomer, unassigned) [Example 146A, (1S or 1R)-[[4-amino-6-(3-methylimidazo[1,5-a]pyridin-6-yl)-1,3,5-triazin-2-yl]amino]-1-(2,3-dichlorophenyl) ethanol] | 1 to 500 |
| Cc1ncc2ccc(-c3nc(N)nc(NC[C@@H](O)c4cccc(Cl)c4Cl)n3)cn12 (single isomer, unassigned) [Example 146B, (1S or 1R)-[[4-amino-6-(3-methylimidazo[1,5-a]pyridin-6-yl)-1,3,5-triazin-2-yl]amino]-1-(2,3-dichlorophenyl) ethanol] | 1 to 500 |
| CNc1nc(N[C@@H](c2c[nH]c(C(F)(F)F)n2)C(C)C)nc(-c2ccc3cnc(C)n3c2)n1 (single isomer, unassigned) [Example 149A, N2-methyl-6-(3-methylimidazo[1,5-a]pyridin-6-yl)-N4-[(1S or 1R)-2-methyl-1-[2-(trifluoromethyl)-1H-imidazol-4-yl]propyl]-1,3,5-triazine-2,4-diamine] | 1 to 500 |
| CNc1nc(N[C@H](c2c[nH]c(C(F)(F)F)n2)C(C)C)nc(-c2ccc3cnc(C)n3c2)n1 (single isomer, unassigned) [Example 149B, N2-methyl-6-(3-methylimidazo[1,5-a]pyridin-6-yl)-N4-[(1S or 1R)-2-methyl-1-[2-(trifluoromethyl)-1H-imidazol-4-yl]propyl]-1,3,5-triazine-2,4-diamine] | 1 to 500 |
| Cc1ncc2ccc(-c3nc(N)nc(N[C@H](CC(C)C)c4c[nH]c(C(F)(F)F)n4)n3)cn12 (single isomer, unassigned) [Example 152A, 6-(3-methylimidazo[1,5-a]pyridin-6-yl)-N4-[(1S or 1R)-3-methyl-1-[2-(trifluoromethyl)-1H-imidazol-4-yl]butyl]-1,3,5-triazine-2,4-diamine] | 1 to 500 |
| Cc1ncc2ccc(-c3nc(N)nc(N[C@@H](CC(C)C)c4c[nH]c(C(F)(F)F)n4)n3)cn12 (single isomer, unassigned) [Example 152B, 6-(3-methylimidazo[1,5-a]pyridin-6-yl)-N4-[(1S or 1R)-3-methyl-1-[2-(trifluoromethyl)-1H-imidazol-4-yl]butyl]-1,3,5-triazine-2,4-diamine] | 1 to 500 |

Next, values leading:

| IC50 [nM] | SMILES |
| --- | --- |
| 1 to 500 | Cc1ncc2ccc(-c3nc(N)nc(N[C@H](CC4CC4)c4c[nH]c(C(F)(F)F)n4)n3)cn12 (single isomer, unassigned) [Example 7A, N4-[(1S or 1R)-2-cyclopropyl-1-[2-(trifluoromethyl)-1H-imidazol-4-yl]ethyl]-6-(3-methylimidazo[1,5-a]pyridin-6-yl)-1,3,5-triazine-2,4-diamine] |
| 1 to 500 | Cc1ncc2ccc(-c3nc(N)nc(N[C@@H](CC4CC4)c4c[nH]c(C(F)(F)F)n4)n3)cn12 (single isomer, unassigned) [Example 7B, N4-[(1S or 1R)-2-cyclopropyl-1-[2-(trifluoromethyl)-1H-imidazol-4-yl]ethyl]-6-(3-methylimidazo[1,5-a]pyridin-6-yl)-1,3,5-triazine-2,4-diamine] |
| 1 to 500 | CNc1nc(N[C@@H](c2ccn(C(F)F)n2)C(C)C)nc(-c2ccc3cnn(C)c3c2)n1 (single isomer, unassigned) [Example 29A, N4-[(1S or 1R)-1-[1-(difluoromethyl)pyrazol-3-yl]-2-methyl-propyl]-N2-(trideuteriomethyl)-6-[1-(trideuteriomethyl)indazol-6-yl]-1,3,5-triazine-2,4-diamine] |
| 1 to 500 | CC(C)C(Nc1nc(N)nc(-c2ccc3c(cnn3C)c2)n1)c1ccn(C(F)F)n1 (single isomer, unassigned) [Example 47A, (R or S)—N2-(1-(1-(difluoromethyl)-1H-pyrazol-3-yl)-2-methylpropyl)-6-(1-methyl-1H-indazol-5-yl)-1,3,5-triazine-2,4-diamine] |
| 1 to 500 | Cc1ncc2ccc(-c3nc(N)nc(N[C@@H](c4ccc(F)cn4)C(C)C)n3)cn12 (single isomer, unassigned) [Example 136A, N2-[(1R or 1S)-1-(5-fluoro-2-pyridyl)-2-methyl-propyl]-6-(3-methylimidazo[1,5-a]pyridin-6-yl)-1,3,5-triazine-2,4-diamine] |
| 1 to 500 | Cc1ncc2ccc(-c3nc(N)nc(N[C@@H](c4c[nH]c(C(F)(F)F)n4)C(C)C)n3)cn12 (single isomer, unassigned) [Example 142A, 6-(3-methylimidazo[1,5-a]pyridin-6-yl)-N2-[(1R or 1S)-2-methyl-1-[2-(trifluoromethyl)-1H-imidazol-4-yl]propyl]-1,3,5-triazine-2,4-diamine] |
| 1 to 500 | Cc1ncc2ccc(-c3nc(N)nc(N[C@H](c4c[nH]c(C(F)(F)F)n4)C(C)C)n3)cn12 (single isomer, unassigned) [Example 142B, 6-(3-methylimidazo[1,5-a]pyridin-6-yl)-N2-[(1R or 1S)-2-methyl-1-[2-(trifluoromethyl)-1H-imidazol-4-yl]propyl]-1,3,5-triazine-2,4-diamine] |
| 1 to 500 | CNc1nc(NC[C@H](O)c2cccc(Cl)c2Cl)cc(-c2ccc3cnc(C)n3c2)n1 (single isomer, unassigned) [Example 143A, (1R or 1S)-1-(2,3-dichlorophenyl)-2-[[2-(methylamino)-6-(3-methylimidazo[1,5-a]pyridin-6-yl)pyrimidin-4-yl]amino]ethanol] |

Reference: patent US20250352549A1, “SUBSTITUTED HETEROCYCLIC COMPOUND DERIVATIVES AND THEIR PHARMACEUTICAL USE” (AVELOS THERAPEUTICS INC., priority 0001, published 2025)
